From patent publication US8796246B2, “9, 10-secopregnane derivative and pharmaceutical” (Nippon Shinyaku Co., Ltd., priority 2006, dated 2014)

Assays:
[1] = tested on: human acute myelogenous leukemia cell line HL-60; experiment: Ability to induce differentiation of HL-60 cells (oxygen radical production after phorbol ester, WST-1); format: cell-based; conditions: 72 hours incubation, then WST-1 and phorbol 12,13-didecanoate for 4 hours, absorbance at 450 nm
From the text: It is known that the human acute myelogenous leukemia cell line HL-60is differentiated into neutrophil-like cells by active vitamin D or the like. Thus, the cells after the differentiation begin to express a surface marker such as CD11and CD32and, at the same time, they produce an oxygen radical by stimulation with a phorbol ester or the like. In this test, the above-mentioned property was utilized. As an index of the ability to induce differentiation of the HL-60cells, the amount of the oxygen radical produced by stimulation with a phorbol ester was measured, and the compounds of the invention mentioned in Examples were compared with maxacalcitol with respect to the vitamin D3activity thereof. In use of commercial reagents and kits, if any, the indications attached thereto were referred to.
HL-60cells (supplied from ATCC) were seeded on a 96-well plate at 5×10^3cells/100μL/well and a test compound in two-fold dilution series from 10^−7M was added to the second to the twelfth rows (maximum concentration: the second row). The first row was used for blank. After incubation for 72 hours under a moisturized condition in the presence of 5% CO2 at 37° C. using a CO2 incubator, 10 μL of PBS containing 50 mM WST-1 (manufactured by Takara Bio) and 10 μM phorbol 12,13-didecanoate (manufactured by SIGMA) were added to each well followed by further incubation for 4 hours. Absorbance (reference wavelength: […]) at […] of the WST-1 formazane dye generated by conversion from WST-1 by oxygen radical produced from the differentiated HL-60 cells was measured by a Benchmark microplate reader (manufactured by BioRad). An absorbance meter control software MPM3 (manufactured by BioRad) was used and, from a concentration-absorbance curve, the 50%-maximal effective concentration (hereinafter, referred to as “EC50”) of each was determined by a logistic curve regression.

[2] = Metabolic rate in human liver microsome; format: in vitro ADME; conditions: pooled human liver microsome 1 mg/mL protein, NADPH-regenerating system, 37° C., 2-60 minutes, HPLC
Method: The compounds of the invention mentioned in Examples and maxacalcitol were compared with each other with respect to the metabolic rate in human liver microsome.
As to the pooled human liver microsome (HHM-0323), those manufactured by Tissue Transformation Technologies were used. A 0.25 M potassium phosphate buffer (pH 7.4) (200 μL), 5 μL of a 250 μM solution of each compound to be tested in DMSO, 50 μL of an NADPH-regenerating system (where 20 mg of β-NADP^+, 70 mg of glucose-6-phosphate, 40 units of glucose-6-phosphate dehydrogenase and 20 mg of magnesium chloride were dissolved in 1 mL of distilled water) and 220 μL of distilled water were added to a microtube and the mixture was subjected to a preincubation for 5 minutes at 37° C. Reaction was started by an addition of 25 μL of human liver microsome (final concentration of protein: 1 mg/mL). Incubation was performed for 2, 10, 30 or 60 minutes and the reaction was stopped by an addition of 500 μL of acetonitrile. After centrifugation at 13,000 rpm for 5 minutes, each test compound in the supernatant (25 μL) was measured by HPLC under the following conditions.
Inertsil ODS-3 (4.6×150 mm; GL Science) was used as a column. With regard to the mobile phase, a solution A (acetonitrile/0.1% aqueous solution of ammonium acetate=10/90) and a solution B (acetonitrile/0.1% aqueous solution of ammonium acetate=90/10) were used under the linear gradient conditions mentioned in Tables 5 to 7. The column temperature, the flow rate and the wavelength for detection were set at 40° C., 1.0 mL/min. and UV 250 or 270 nm, respectively.
The compound mentioned in Example 38 was analyzed under the condition shown in Table 6; the compounds mentioned in Examples 55, 56, 68, 69, 72 and 73 were under the condition shown in Table 7; and the other compounds were under the condition shown in Table 5.
The compounds described in Examples 40, 43 to 48, 50, 55, 56, 58, 60, 61, 63 and 65 to 73 were analyzed under the condition of UV 250 nm; and the other compounds were under the condition of UV 270 nm.
From the HPLC test results as above, the metabolic rate of the test compound was calculated.

[3] = Action to increase the urinary excretion of calcium (1), percutaneous administration; format: in vivo, SD male rats; conditions: percutaneous 10 μg/200 μL/kg/day once a day for 4 days; for Calcium in Urine within 24 hours: accumulated excretion 0 to 24 hours; for Calcium in Urine within 48 hours: accumulated excretion 0 to 48 hours; for Calcium in Urine within 72 hours: accumulated excretion 0 to 72 hours; for Calcium in Urine within 96 hours: accumulated excretion 0 to 96 hours
Method: The compound of the invention mentioned in Example 1, 36, 43, 47, 48, 55 or 70 or maxacalcitol in ethanol containing 0.5% DMSO was repeatedly subjected to a percutaneous administration (10 μg/200 μL/kg/day) once a day for 4 days onto the back of SD male rats (7 weeks of age). Ethanol containing 0.5% DMSO was administered to a control group. The calcium concentration in urine collected every 24 hours was measured and multiplied by the amount of urine to calculate the urinary excretion of calcium. The calcium excretion in urine shown in Table 3 indicates the accumulated calcium excretion from 0 to 24 hours, from 0 to 48 hours, from 0 to 72 hours, and from 0 to 96 hours.

Molecule	EC50 [1]	Metabolic Rate [2]	Calcium in Urine within 24 hours [3]	Calcium in Urine within 48 hours [3]	Calcium in Urine within 72 hours [3]	Calcium in Urine within 96 hours [3]
(1S,3R,20S)-20-[(4S) or (4R)-5,5,5-trifluoro-4-hydroxy-4-methylpentanoyloxy]-9,10-secopregna-5Z,7E,10(19)-triene-1,3-diol [Compound of Example 36]	0.41 nM	82 pmol/min/mg	1.0 mg	1.7 mg	2.8 mg	4.5 mg
CC(OC(=O)CCC(C)(C)O)C1CCC2C(=CC=C3CC(O)CC(O)C3)CCCC21C [Compound of Example 40, (1R,3R,20S)-19-nor-20-(4-hydroxy-4-methylpentanoyloxy)-9,10-secopregna-5Z,7E-diene-1,3-diol]	1.6 nM	65 pmol/min/mg	–	–	–	–
CC(OC(=O)CCC(C)(C)O)C1=CCC2C(=CC=C3CC(O)CC(O)C3)CCCC12C [Compound of Example 46, (1R,3R,20S)-19-nor-20-(4-hydroxy-4-methylpentanoyloxy)-9,10-secopregna-5Z,7E,16-triene-1,3-diol]	1.4 nM	45 pmol/min/mg	–	–	–	–
CC(OC(=O)CCC(C)(O)C(F)(F)F)C1CCC2C(=CC=C3CC(O)CC(O)C3)CCCC21C [Compound of Example 43, (1R,3R,20S)-19-nor-20-(5,5,5-trifluoro-4-hydroxy-4-methylpentanoyloxy)-9,10-secopregna-5Z,7E-diene-1,3-diol]	0.45 nM	74 pmol/min/mg	1.2 mg	1.9 mg	3.3 mg	4.6 mg
CC(OC(=O)CCC(C)(O)C(F)(F)F)C1=CCC2C(=CC=C3CC(O)CC(O)C3)CCCC12C [Compound of Example 47, (1R,3R,20S)-19-nor-20-(5,5,5-trifluoro-4-hydroxy-4-methylpentanoyloxy)-9,10-secopregna-5Z,7E,16-triene-1,3-diol]	0.63 nM	95 pmol/min/mg	1.2 mg	1.8 mg	2.7 mg	3.7 mg
C=C1C(=CC=C2CCCC3(C)C2CCC3C(C)OC(=O)CCC(O)(CC)CC)CC(O)CC1O [Compound of Example 13, (1S,3R,20S)-20-(4-ethyl-4-hydroxyhexanoyloxy)-9,10-secopregna-5Z,7E,10(19)-triene-1,3-diol]	0.53 nM	38 pmol/min/mg	–	–	–	–
C=C1C(=CC=C2CCCC3(C)C2CCC3C(C)OC(=O)CCCC(C)(O)C(F)(F)F)CC(O)CC1O [Compound of Example 37, (1S,3R,20S)-20-(6,6,6-trifluoro-5-hydroxy-5-methylhexanoyloxy)-9,10-secopregna-5Z,7E,10(19)-triene-1,3-diol]	1.1 nM	36 pmol/min/mg	–	–	–	–
C=C1C(=CC=C2CCCC3(C)C2CCC3C(C)OC(=O)CCC2(O)CCCC2)CC(O)CC1O [Compound of Example 20, (1S,3R,20S)-20-[3-(1-hydroxycyclopentyl)propanoyloxy]-9,10-secopregna-5Z,7E,10(19)-triene-1,3-diol]	1.4 nM	39 pmol/min/mg	–	–	–	–
C=C1C(=CC=C2CCCC3(C)C2CCC3C(C)OC(=O)CCCC(O)(CC)CC)CC(O)CC1O [Compound of Example 34, (1S,3R,20S)-20-(5-hydroxy-5-ethylheptanoyloxy)-9,10-secopregna-5Z,7E,10(19)-triene-1,3-diol]	4.2 nM	36 pmol/min/mg	–	–	–	–
C=C1C(=CC=C2CCCC3(C)C2CCC3C(C)OC(=O)CCC(C)(O)C(F)(F)F)CC(O)CC1O (single isomer, unassigned) [Compound of Example 35, (1S,3R,20S)-20-[(4R) or (4S)-5,5,5-trifluoro-4-hydroxy-4-methylpentanoyloxy]-9,10-secopregna-5Z,7E,10(19)-triene-1,3-diol]	0.82 nM	43 pmol/min/mg	–	–	–	–
CC(OC(=O)CCC(C)(C)O)C1CCC2C(=CC=C3CC(O)C(C)C(O)C3)CCCC21C [Compound of Example 50, (1R,2α,3R,20S)-2-methyl-19-nor-20-(4-hydroxy-4-methylpentanoyloxy)-9,10-secopregna-5Z,7E-diene-1,3-diol]	0.043 nM	45 pmol/min/mg	–	–	–	–

Other lines, results leading:

EC50 [1]	Metabolic Rate [2]	Calcium in Urine within 24 hours [3]	Calcium in Urine within 48 hours [3]	Calcium in Urine within 72 hours [3]	Calcium in Urine within 96 hours [3]	Molecule
0.17 nM	111 pmol/min/mg	–	–	–	–	CC(OC(=O)CCC(C)(O)C(F)(F)F)C1CCC2C(=CC=C3CC(O)CC(O)C3)CCCC21C [Compound of Example 72, (1R,3R,20S)-19-nor-20-[(4S)-5,5,5-trifluoro-4-hydroxy-4-methylpentanoyloxy]-9,10-secopregna-5Z,7E-diene-1,3-diol]
1.1 nM	40 pmol/min/mg	–	–	–	–	C=C1C(=CC=C2CCCC3(C)C(C(C)OC(=O)CCC(C)(O)C(F)(F)F)=CCC23)CC(O)CC1O (single isomer, unassigned) [Compound of Example 71, (1S,3R,20S)-20-[(4S) or (4R)-5,5,5-trifluoro-4-hydroxy-4-methylpentanoyloxy]-9,10-secopregna-5Z,7E,10(19),16-tetraene-1,3-diol]
0.77 nM	86 pmol/min/mg	–	–	–	–	C[C@H](OC(=O)CC[C@@](C)(O)C(F)(F)F)C1=CC[C@H]2/C(=C/C=C3C[C@@H](O)C[C@H](O)C3)CCC[C@]12C [Compound of Example 69, (1R,3R,20S)-19-nor-20-[(4R)-5,5,5-trifluoro-4-hydroxy-4-methylpentanoyloxy]-9,10-secopregna-5Z,7E,16-triene-1,3-diol]
0.23 nM	24 pmol/min/mg	–	–	–	–	CC(OC(=O)CCC(C)(C)O)C1=CCC2C(=CC=C3CC(O)C(C)C(O)C3)CCCC12C [Compound of Example 62, (1R,2α,3R,20S)-19-nor-2-methyl-20-(4-hydroxy-4-methylpentanoyloxy)-9,10-secopregna-5Z,7E,16-triene-1,3-diol]
0.15 nM	38 pmol/min/mg	–	–	–	–	CCC(O)(CC)CCC(=O)OC(C)C1CCC2C(=CC=C3CC(O)C(C)C(O)C3)CCCC21C [Compound of Example 67, (1R,2α,3R,20S) -2-methyl-19-nor-20-[4-ethyl-4-hydroxyhexanoyloxy]-9,10-secopregna-5Z,7E-diene-1,3-diol]
0.47 nM	102 pmol/min/mg	–	–	–	–	C=C1C(O)CC(=CC=C2CCCC3(C)C(C(C)OC(=O)CCC(C)(O)C(F)(F)F)=CCC23)CC1O [Compound of Example 56, (1R,3R,20S)-19-nor-2-methylene-20-[(4R)-5,5,5-trifluoro-4-hydroxy-4-methylpentanoyloxy]-9,10-secopregna-5Z,7E,16-triene-1,3-diol]
